The Ki is a dissociation constant, usually derived from enzyme kinetics or from competition with a known ligand.

In this test the target is HPK1 (Homo sapiens (Human), UniProt Q92918, S171E/T165E). The test is described as follows: HPK1-FL HTRF Enzymatic Assay (HTRF). The conditions noted are these: HPK full length T165E S171E 0.125 nM, ATP 1 mM, Biotin-SLP76 100 nM, read-out: HPK1 Ki (nM), H = HTRF. The test is classed as biochemical. In short, it runs like this: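 Full-length HPK1 double mutant, preincubated 30 min with compound, then phosphorylates Biotin-SLP-76 at 1 mM ATP for 60 min in HEPES pH 7.5/MgCl2/TCEP/Brij-35 buffer. Phospho-product detected by TR-FRET (Eu-anti-pSLP76, SA-XL665) after 60 min; 665/620 ratio gives % activity, from which Ki is determined.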
Chain of HPK1 (Q92918 whole entry T165E/S171E): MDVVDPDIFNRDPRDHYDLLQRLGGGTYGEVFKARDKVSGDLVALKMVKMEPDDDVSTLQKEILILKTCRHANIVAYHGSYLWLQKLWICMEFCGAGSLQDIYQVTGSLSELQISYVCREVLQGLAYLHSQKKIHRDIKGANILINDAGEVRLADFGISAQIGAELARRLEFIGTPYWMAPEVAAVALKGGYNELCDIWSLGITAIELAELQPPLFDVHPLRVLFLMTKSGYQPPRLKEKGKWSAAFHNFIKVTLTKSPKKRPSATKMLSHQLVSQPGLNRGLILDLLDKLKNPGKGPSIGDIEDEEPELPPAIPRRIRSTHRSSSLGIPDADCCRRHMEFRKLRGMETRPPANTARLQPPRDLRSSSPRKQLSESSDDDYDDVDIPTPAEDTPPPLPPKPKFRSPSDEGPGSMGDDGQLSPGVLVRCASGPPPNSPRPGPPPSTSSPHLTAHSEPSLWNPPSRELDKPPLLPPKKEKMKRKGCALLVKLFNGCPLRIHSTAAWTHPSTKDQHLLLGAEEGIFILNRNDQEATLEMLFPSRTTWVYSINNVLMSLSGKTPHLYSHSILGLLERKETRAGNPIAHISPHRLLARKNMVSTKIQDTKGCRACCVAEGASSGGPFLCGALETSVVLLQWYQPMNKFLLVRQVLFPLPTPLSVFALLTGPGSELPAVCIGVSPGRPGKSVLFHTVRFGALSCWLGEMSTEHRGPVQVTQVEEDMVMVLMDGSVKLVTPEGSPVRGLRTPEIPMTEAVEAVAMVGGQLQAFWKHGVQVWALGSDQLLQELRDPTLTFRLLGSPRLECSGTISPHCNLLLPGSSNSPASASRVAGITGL
For orientation: In TR-FRET formats the signal depends on donor and acceptor labels being close together.
For `Cc1c(CN)cccc1-c1cc2cc(Nc3cc4n(n3)CC(=O)N(C)CC4)ncc2cc1F` [Compound 207, 2-((6-(3-(aminomethyl)-2-methylphenyl)-7-fluoroisoquinolin-3-yl)amino)-6-methyl-5,6-dihydro-4H-pyrazolo[1,5-d][1,4]diazepin-7(8H)-one], the Ki was 22 nM.
Turning to `Cc1c(N)cncc1-c1cc2cc(Nc3cc4n(n3)CC(=O)N(C(C)C)CC4)ncc2c(C)c1F` [Compound 121, 2-((6-(5-amino-4-methylpyridin-3-yl)-7-fluoro-8-methylisoquinolin-3-yl)amino)-6-isopropyl-5,6-dihydro-4H-pyrazolo[1,5-d][1,4]diazepin-7(8H)-one], the Ki turned out to be 0.08 nM.
In the case of `Cc1c(-c2cc3cc(Nc4cc5n(n4)CC(=O)NCC5)ncc3cc2F)cnc2c1NCCC2` [Compound 192, 2-((7-fluoro-6-(4-methyl-5,6,7,8-tetrahydro-1,5-naphthyridin-3-yl)isoquinolin-3-yl)amino)-5,6-dihydro-4H-pyrazolo[1,5-d][1,4]diazepin-7(8H)-one] it was 0.018 nM; in that of `Cc1c(-c2cc3cc(Nc4cc5n(n4)CC(=O)N([C@@H](C)CO)CC5)ncc3cc2F)cnc2c1NCCO2` (single isomer, unassigned) [Compound 148a], 0.013 nM.
To `Cc1c(-c2cc3cc(Nc4cc5n(n4)CC(=O)NCC5)ncc3cc2F)cnc2c1NCC(C)O2` (racemic) [Compound 184, (+/−)-2-((6-(3,8-dimethyl-2,3-dihydro-1H-pyrido[2,3-b][1,4]oxazin-7-yl)-7-fluoroisoquinolin-3-yl)amino)-5,6-dihydro-4H-pyrazolo[1,5-d][1,4]diazepin-7(8H)-one] belongs 0.018 nM; to `Cc1ccncc1-c1ccc2cnc(Nc3cc4n(n3)CC(=O)N(C(C)C)CC4)cc2c1` [Compound 122, 6-isopropyl-2-[[6-(4-methyl-3-pyridyl)-3-isoquinolyl]amino]-5,8-dihydro-4H-pyrazolo[1,5-d][1,4]diazepin-7-one], 1 nM; to `Cc1c(-c2cc3cc(Nc4cc5n(n4)CC(=O)N(C)CC5)ncc3cc2F)cnc2nc[nH]c12` [Compound 175, 2-((7-fluoro-6-(7-methyl-1H-imidazo[4,5-b]pyridin-6-yl)isoquinolin-3-yl)amino)-6-methyl-5,6-dihydro-4H-pyrazolo[1,5-d][1,4]diazepin-7(8H)-one], 0.14 nM.
To `CNCc1ccc(F)c(-c2ccc3cnc(Nc4cc5n(n4)CC(=O)N(C)CC5)cc3c2)c1C` [Compound 219, 2-((6-(6-fluoro-2-methyl-3-((methylamino)methyl)phenyl)isoquinolin-3-yl)amino)-6-methyl-5,6-dihydro-4H-pyrazolo[1,5-d][1,4]diazepin-7(8H)-one] belongs 7 nM; to `Cc1c(-c2cc3cc(Nc4cc5n(n4)CC(=O)N(C)CC5)ncc3cc2F)cnc2c1C(O)CCO2` (single isomer, unassigned) [Compound 180b, 2-((7-Fluoro-6-(4-hydroxy-5-methyl-3,4-dihydro-2H-pyrano[2,3-b]pyridine-6-yl)isoquinolin-3-yl)amino)-6-methyl-5,6-dihydro-4H-pyrazolo[1,5-d][1,4]diazepin-7(8H)-one], 4.82 nM.
In the case of `Cc1c(-c2cc3cc(Nc4cc5n(n4)CC(=O)N(C)CC5)ncc3cc2F)ccc2c1CNC2` [Compound 221, 2-((7-fluoro-6-(4-methylisoindolin-5-yl)isoquinolin-3-yl)amino)-6-methyl-5,6-dihydro-4H-pyrazolo[1,5-d][1,4]diazepin-7(8H)-one], the Ki is 97 nM.
For the compound `Cc1c(-c2cc3cc(Nc4cc5n(n4)CC(=O)N(C)CC5)ncc3cc2F)cnc2c1C(O)CCO2` (single isomer, unassigned) [Compound 180a, 2-((7-Fluoro-6-(4-hydroxy-5-methyl-3,4-dihydro-2H-pyrano[2,3-b]pyridine-6-yl)isoquinolin-3-yl)amino)-6-methyl-5,6-dihydro-4H-pyrazolo[1,5-d][1,4]diazepin-7(8H)-one], the Ki turned out to be 0.05 nM.
For `COCCN1CCc2cc(Nc3cc4cc(-c5cnc6c(c5C)NCCO6)c(F)cc4cn3)nn2CC1=O` [Compound 155, 2-((7-fluoro-6-(8-methyl-2,3-dihydro-1H-pyrido[2,3-b][1,4]oxazin-7-yl)isoquinolin-3-yl)amino)-6-(2-methoxyethyl)-5,6-dihydro-4H-pyrazolo[1,5-d][1,4]diazepin-7(8H)-one], the Ki is 0.013 nM.
To `Cc1c(N)cncc1-c1cc2cc(Nc3cc4n(n3)CC(=O)N(C)C[C@@]4(C)O)ncc2cc1F` (single isomer, unassigned) [Compound 185a] belongs 0.169 nM.
In the case of `Cc1c(-c2cc3cc(Nc4cc5n(n4)Cc4nccn4CC5)ncc3cc2F)cnc2c1NCC[S+]2[O-]` (racemic) [Compound 189, (+/−)-7-(3-((5,6-dihydro-11H-imidazo[1,2-a]pyrazolo[1,5-d][1,4]diazepin-8-yl)amino)-7-fluoroisoquinolin-6-yl)-8-methyl-2,3-dihydro-1H-pyrido[2,3-b][1,4]thiazine 4-oxide] it was 0.48 nM; in that of `Cc1c(N)cncc1-c1cc2cc(Nc3cc4n(n3)CC(=O)NCC4)ncc2cc1F` [Compound 144, 2-((6-(5-amino-4-methylpyridin-3-yl)-7-fluoroisoquinolin-3-yl)amino)-5,6-dihydro-4H-pyrazolo[1,5-d][1,4]diazepin-7(8H)-one], 0.062 nM; in that of `Cc1c(-c2cc3cc(Nc4cc5n(n4)Cc4nccn4CC5)ncc3cc2F)cnc2c1NCC[C@@H]2O` (single isomer, unassigned) [Compound 243a], 0.013 nM.
To `Cc1c(-c2cc3cc(Nc4cc5n(n4)CC(=O)N(C(C)C)CC5)ncc3cc2F)cnc2c1NCCO2` [Compound 116, 2-((7-fluoro-6-(8-methyl-2,3-dihydro-1H-pyrido[2,3-b][1,4]oxazin-7-yl)isoquinolin-3-yl)amino)-6-isopropyl-5,6-dihydro-4H-pyrazolo[1,5-d][1,4]diazepin-7(8H)-one] belongs 0.014 nM; to `Cc1c(-c2cc(F)c3cnc(Nc4cc5n(n4)CC(=O)N(C)CC5)cc3c2)cnc2c1NCC[C@@]2(C)O` (single isomer, unassigned) [Compound 231a], 1.3 nM.
Consider `Cc1ncc(-c2cc3cc(Nc4cc5n(n4)CC(=O)N(C(C)C)CC5F)ncc3cc2F)c(C)c1N` (racemic) [Compound 150, (+/-)-2-((6-(5-amino-4,6-dimethylpyridin-3-yl)-7-fluoroisoquinolin-3-yl)amino)-4-fluoro-6-isopropyl-5,6-dihydro-4H-pyrazolo[1,5-d][1,4]diazepin-7(8H)-one], for which the inhibition constant Ki was found to be 0.15 nM.
To `Cc1c(-c2cc3cc(Nc4cc5n(n4)CC(=O)N(C(C)C)CC5)ncc3cc2F)cnc2c1NC(=O)CO2` [Compound 123, 7-[7-fluoro-3-[(6-isopropyl-7-oxo-5,8-dihydro-4H-pyrazolo[1,5-d][1,4]diazepin-2-yl)amino]-6-isoquinolyl]-8-methyl-1H-pyrido[2,3-b][1,4]oxazin-2-one] belongs 0.11 nM; to `Cc1c(-c2ccc3cnc(Nc4cc5n(n4)CC(=O)N(CCO)CC5)cc3c2F)cnc2c1NCCO2` [Compound 146, 2-((5-fluoro-6-(8-methyl-2,3-dihydro-1H-pyrido[2,3-b][1,4]oxazin-7-yl)isoquinolin-3-yl)amino)-6-(2-hydroxyethyl)-5,6-dihydro-4H-pyrazolo[1,5-d][1,4]diazepin-7(8H)-one], 0.034 nM.
In the case of `CN1CCc2cc(Nc3cc4cc(-c5cccc6c5CNC6)c(F)cc4cn3)nn2CC1=O` [Compound 215, 2-((7-fluoro-6-(isoindolin-4-yl)isoquinolin-3-yl)amino)-6-methyl-5,6-dihydro-4H-pyrazolo[1,5-d][1,4]diazepin-7(8H)-one] it was 364 nM; in that of `Cc1c(-c2cc3cc(Nc4cc5n(n4)CS(=O)(=O)N(C)C5)ncc3cc2F)cnc2c1NCC[C@@H]2O` (single isomer, unassigned) [Compound 242a], 0.457 nM; in that of `Cc1c(-c2cc(F)c3cnc(Nc4cc5n(n4)CC(=O)N(C)CC5)cc3c2)cnc2c1NCC[C@]2(C)O` (single isomer, unassigned) [Compound 231b], 0.38 nM.
To `Cc1c(N)cncc1-c1cc2cc(Nc3cc4n(n3)CC(=O)N(C(C)C)CC4)ncc2cc1C#N` [Compound 169, 6-(5-amino-4-methylpyridin-3-yl)-3-((6-isopropyl-7-oxo-5,6,7,8-tetrahydro-4H-pyrazolo[1,5-d][1,4]diazepin-2-yl)amino)isoquinoline-7-carbonitrile] belongs 0.39 nM; to `Cc1c(N)cncc1-c1cc2cc(Nc3cc4n(n3)CC(=O)N(C)C(C)(C)C4)ncc2cc1F` [Compound 120, 2-((6-(5-amino-4-methylpyridin-3-yl)-7-fluoroisoquinolin-3-yl)amino)-5,5,6-trimethyl-5,6-dihydro-4H-pyrazolo[1,5-d][1,4]diazepin-7(8H)-one], 0.04 nM.
`CN[C@H]1CCN(c2cc(C)c(-c3cc4cc(Nc5cc6n(n5)CC(=O)N(C)CC6)ncc4cc3F)cn2)C1` (single isomer, unassigned) [Compound 206b]: the Ki turned out to be 6.2 nM.
In the case of `Cc1c(-c2cc3cc(Nc4cc5n(n4)CC(=O)N(C(C)C)CC5O)ncc3cc2F)cnc2c1NCCO2` (single isomer, unassigned) [Compound 141b] it was 0.018 nM; in that of `CNCc1cc(C)c(-c2ccc3cnc(Nc4cc5n(n4)CC(=O)N(C)CC5)cc3c2)c(F)c1` [Compound 222, 2-((6-(2-fluoro-6-methyl-4-((methylamino)methyl)phenyl)isoquinolin-3-yl)amino)-6-methyl-5,6-dihydro-4H-pyrazolo[1,5-d][1,4]diazepin-7(8H)-one], 5.2 nM.
In the case of `Cc1ccncc1-c1cc2cc(Nc3cc4n(n3)CC(=O)N(C)CC4)ncc2c(Cl)c1F` [Compound 110, 2-[[8-Chloro-7-fluoro-6-(4-methylpyridin-3-yl)isoquinolin-3-yl]amino]-6-methyl-4H,5H,6H,7H,8H-pyrazolo[1,5-d][1,4]diazepin-7-one] it was 4.6 nM.

Values taken from patent US12378249B2, “Isoquinoline compounds and uses thereof” (Genentech, Inc., priority 2018, dated 2025).
